According to the NIST ThermoML archive (doi:10.1021/je0340809):

Assay: xn = mol fraction of the nth substance listed
Details: 101.3 kPa, Liquid

O=C1CCCN1 [2-pyrrolidinone] + O
Details | mass density [kg/m3] | speed of sound [m/s] | viscosity [mPa·s]
298.15 K, x2 = 0.0549 | 1106.53 | 1637.8 | 13.02
298.15 K, x2 = 0.1506 | 1105.77 | 1641.1 | 12.29
298.15 K, x2 = 0.2552 | 1104.43 | 1662 | 11.77
298.15 K, x2 = 0.35 | 1102.41 | 1691.1 | 11.32
298.15 K, x2 = 0.4496 | 1099.53 | 1711.7 | 10.63
298.15 K, x2 = 0.5 | 1097.71 | 1717.9 | 10.13
298.15 K, x2 = 0.5566 | 1095.2 | 1723.5 | 9.408
298.15 K, x2 = 0.6422 | 1089.78 | 1728.3 | 8.014
298.15 K, x2 = 0.7532 | 1077.07 | 1730.9 | 5.772
298.15 K, x2 = 0.8516 | 1056.03 | 1715.4 | 3.645
298.15 K, x2 = 0.8714 | 1050.24 | 1704.6 | 3.231
298.15 K, x2 = 0.8856 | 1045.71 | 1694.1 | 2.94
298.15 K, x2 = 0.9 | 1040.8 | 1681 | 2.651
298.15 K, x2 = 0.9249 | 1031.48 | 1650.9 | 2.171
298.15 K, x2 = 0.9369 | 1026.61 | 1632.7 | 1.948
298.15 K, x2 = 0.9526 | 1019.88 | 1605.5 | 1.667
298.15 K, x2 = 0.9651 | 1014.21 | 1580.7 | 1.451
298.15 K, x2 = 0.9748 | 1009.64 | 1559.8 | 1.29
298.15 K, x2 = 0.9906 | 1001.87 | 1522.6 | 1.036
308.15 K, x2 = 0.0549 | 1098.69 | 1609.2 | 8.624
308.15 K, x2 = 0.1506 | 1097.66 | 1618.7 | 8.126
308.15 K, x2 = 0.2552 | 1095.98 | 1635.9 | 7.761
308.15 K, x2 = 0.35 | 1093.81 | 1657.3 | 7.452
308.15 K, x2 = 0.4496 | 1090.94 | 1679 | 6.988
308.15 K, x2 = 0.5 | 1089.17 | 1688.1 | 6.657
308.15 K, x2 = 0.5566 | 1086.76 | 1696.7 | 6.188
308.15 K, x2 = 0.6422 | 1081.57 | 1706.4 | 5.289
308.15 K, x2 = 0.7532 | 1069.46 | 1711.6 | 3.853
308.15 K, x2 = 0.8516 | 1049.57 | 1695.1 | 2.489
308.15 K, x2 = 0.8714 | 1044.11 | 1686.1 | 2.224
308.15 K, x2 = 0.8856 | 1039.85 | 1677.9 | 2.038
308.15 K, x2 = 0.9 | 1035.22 | 1667.7 | 1.852
308.15 K, x2 = 0.9249 | 1026.46 | 1645 | 1.544
308.15 K, x2 = 0.9369 | 1021.88 | 1631.3 | 1.401
308.15 K, x2 = 0.9526 | 1015.55 | 1610.1 | 1.22
308.15 K, x2 = 0.9651 | 1010.22 | 1590.4 | 1.082
308.15 K, x2 = 0.9748 | 1005.91 | 1573.1 | 0.977
308.15 K, x2 = 0.9906 | 995.75 | 1540.9 | 0.812
318.15 K, x2 = 0.0549 | 1090.54 | 1570 | 6.104
318.15 K, x2 = 0.1506 | 1089.51 | 1576.7 | 5.778
318.15 K, x2 = 0.2552 | 1087.87 | 1589.9 | 5.543
318.15 K, x2 = 0.35 | 1085.69 | – | 5.344
318.15 K, x2 = 0.4496 | 1082.75 | – | 5.034
318.15 K, x2 = 0.5 | 1080.94 | – | 4.807
318.15 K, x2 = 0.5566 | 1078.51 | 1650.3 | 4.48
318.15 K, x2 = 0.6422 | 1073.38 | 1663.9 | 3.845
318.15 K, x2 = 0.7532 | 1061.72 | 1678.2 | 2.823
318.15 K, x2 = 0.8516 | 1042.81 | 1675 | 1.852
318.15 K, x2 = 0.8714 | 1037.63 | 1669.5 | 1.663
318.15 K, x2 = 0.8856 | 1033.59 | 1664 | 1.53
318.15 K, x2 = 0.9 | 1029.21 | 1656.8 | 1.398
318.15 K, x2 = 0.9249 | 1020.9 | 1639.6 | 1.179
318.15 K, x2 = 0.9369 | 1016.57 | 1628.8 | 1.078
318.15 K, x2 = 0.9526 | 1010.57 | 1611.8 | 0.95
318.15 K, x2 = 0.9651 | 1005.52 | 1595.5 | 0.851
318.15 K, x2 = 0.9748 | 1001.44 | 1581.1 | 0.778
318.15 K, x2 = 0.9906 | 995.2 | 1553.7 | 0.662
328.15 K, x2 = 0.0549 | 1082.33 | 1556 | 4.562
328.15 K, x2 = 0.1506 | 1081.2 | 1562.4 | 4.323
328.15 K, x2 = 0.2552 | 1079.48 | 1574.8 | 4.147
328.15 K, x2 = 0.35 | 1077.27 | 1592.4 | 4
328.15 K, x2 = 0.4496 | 1074.29 | 1612.3 | 3.772
328.15 K, x2 = 0.5 | 1072.48 | 1621.7 | 3.605
328.15 K, x2 = 0.5566 | 1070.03 | 1631.3 | 3.364
328.15 K, x2 = 0.6422 | 1064.97 | 1644.8 | 2.895
328.15 K, x2 = 0.7532 | 1053.71 | 1659.9 | 2.143
328.15 K, x2 = 0.8516 | 1035.74 | 1660.2 | 1.427
328.15 K, x2 = 0.8714 | 1030.84 | 1656.2 | 1.288
328.15 K, x2 = 0.8856 | 1027.01 | 1652 | 1.191
328.15 K, x2 = 0.9 | 1022.85 | 1646.3 | 1.095
328.15 K, x2 = 0.9249 | 1014.98 | 1632.4 | 0.932
328.15 K, x2 = 0.9369 | 1010.86 | 1623.5 | 0.858
328.15 K, x2 = 0.9526 | 1005.16 | 1609.4 | 0.764
328.15 K, x2 = 0.9651 | 1000.35 | 1595.8 | 0.69
328.15 K, x2 = 0.9748 | 996.455 | 1583.8 | 0.637
328.15 K, x2 = 0.9906 | 989.833 | 1560.8 | 0.551
338.15 K, x2 = 0.0549 | 1070.16 | 1526.1 | 3.37
338.15 K, x2 = 0.1506 | 1069.05 | 1532.8 | 3.198
338.15 K, x2 = 0.2552 | 1067.4 | 1545 | 3.076
338.15 K, x2 = 0.35 | 1065.29 | 1562 | 2.973
338.15 K, x2 = 0.4496 | 1062.48 | 1581.5 | 2.81
338.15 K, x2 = 0.5 | 1060.76 | 1590.8 | 2.69
338.15 K, x2 = 0.5566 | 1058.45 | 1600.7 | 2.516
338.15 K, x2 = 0.6422 | 1053.71 | 1615.2 | 2.177
338.15 K, x2 = 0.7532 | 1043.28 | 1632.8 | 1.63
338.15 K, x2 = 0.8516 | 1026.75 | 1638.6 | 1.11
338.15 K, x2 = 0.8714 | 1022.24 | 1636.4 | 1.009
338.15 K, x2 = 0.8856 | 1018.73 | 1633.7 | 0.938
338.15 K, x2 = 0.9 | 1014.9 | 1629.8 | 0.867
338.15 K, x2 = 0.9249 | 1007.65 | 1619.7 | 0.749
338.15 K, x2 = 0.9369 | 1003.86 | 1613 | 0.695
338.15 K, x2 = 0.9526 | 998.592 | 1602.2 | 0.627
338.15 K, x2 = 0.9651 | 994.147 | 1591.6 | 0.574
338.15 K, x2 = 0.9748 | 990.543 | 1582 | 0.535
338.15 K, x2 = 0.9906 | 984.343 | 1563.7 | 0.473
